According to US9447135B2, “Semi-synthetic mithramycin derivatives with anti-cancer activity” (UNIVERSITY OF KENTUCKY RESEARCH FOUNDATION, priority 2012, dated 2016):
Read-outs that look alike come from different tables or passages of the source.

How the values were obtained:
[1] = system: ES-7 Ewing sarcoma cell line; assay: 72 hour cytotoxicity, ES-7; format: cell-based; conditions: Ewing sarcoma cell line ES-7, 72 hour
Protocol: (§1) The cytotoxicity of a subgroup of the MTM SA analogues was tested against various Ewing sarcoma cell lines and non-Ewing sarcoma cell lines over a 72 hour period. Each analogue was checked individually with a range of concentrations to determine the IC50 of the molecule in actively growing cell cultures.

[2] = system: TC71 Ewing sarcoma cell line; assay: 72 hour cytotoxicity, TC71; format: cell-based; conditions: Ewing sarcoma cell line TC71, 72 hour
Protocol: as §1

[3] = system: ES-3 Ewing sarcoma cell line; assay: 72 hour cytotoxicity, ES-3; format: cell-based; conditions: Ewing sarcoma cell line ES-3, 72 hour
Protocol: as §1

[4] = system: ES-4 Ewing sarcoma cell line; assay: 72 hour cytotoxicity, ES-4; format: cell-based; conditions: Ewing sarcoma cell line ES-4, 72 hour
Protocol: as §1

[5] = system: VCaP non-Ewing sarcoma cell line; assay: 72 hour cytotoxicity, VCaP; format: cell-based
Protocol: as §1

[6] = system: U118 non-Ewing sarcoma cell line; assay: 72 hour cytotoxicity, U118; format: cell-based; conditions: non-Ewing sarcoma cell line U118, 72 hour
Protocol: as §1

[7] = 72 hour cytotoxicity, RH30; format: cell-based; conditions: Ewing sarcoma cell line RH30, 72 hour; read-out: IC50 (nM) RH 30
Protocol: as §1

[8] = system: RDES Ewing sarcoma cell line; assay: 72 hour cytotoxicity, RDES; format: cell-based
Protocol: as §1

[9] = system: PC3 non-Ewing sarcoma cell line; assay: 72 hour cytotoxicity, PC3; format: cell-based; conditions: non-Ewing sarcoma cell line PC3, 72 hour
Protocol: as §1

[10] = system: TC32 Ewing sarcoma cell line; assay: 72 hour cytotoxicity, TC32; format: cell-based; conditions: Ewing sarcoma cell line TC32, 72 hour
Protocol: as §1

[11] = system: genes controlled by EWS-FLI1 in TC32 cells; assay: Expression of genes controlled by EWS-FLI1 by qRT-PCR; format: cell-based; conditions: 6 hours, dose dependent
Protocol: FIG. 11A, FIG. 11B, FIGS. 11C, 11D, and 11E provide a series of graphs showing that MTM analogs have increased cytoxicity and distinct cell cycle distribution in Ewing sarcoma. The graphs show relative gene expression in TC32 cells treated with MTM analogs. Three genes controlled by the EWS-FLI1 transcription factor were investigated by qRT-PCR at four different treatment concentrations for 6 hours. CCK served as a negative control.
(§2) Studies were conducted using MTM and lead analogs (mithramycin-SK (MTM-SK), mithramycin-SA-tryptophan (MTM-SA-Trp), and mithramycin-SA-phenylalanine (MTM-SA-Phe)). EWS-FLI1 promoter occupancy was investigated using chromatin immune precipitation real time PCR (ChIP-RTPCR). The effect of drug treatment on expression of genes controlled by EWSFLI1 was evaluated by quantitative real-time PCR (qRT-PCR) (FIG. 11). The effect of treatment with 100 nM of drug for 24 hours on cell cycle distribution was also compared among analogs (FIG. 12(b)). […] In addition, the maximum tolerated dose (MTD) and the effect of treatment on plasma total-calcium were used to assess relative toxicity in mice.
(§3) EWS-FLI1 promoter occupancy upstream from Nr0b1, Tgfbr2, and Rcor1 genes was evaluated in Ewing sarcoma cells (TC32 cells) by ChIP-RTPCR. […] (FIG. 11). […] (FIG. 12(a)). Furthermore, the effect of drug treatment appears to lead to differences in cell-cycle progression. […] (FIG. 12(b)).

[12] = system: A673 Ewing sarcoma cell line; assay: 72 hour cytotoxicity, A673; format: cell-based; conditions: Ewing sarcoma cell line A673, 72 hour
Protocol: as §1

[13] = system: OVCAR-8 non-Ewing sarcoma cell line; assay: 72 hour cytotoxicity, OVCAR-8; format: cell-based; conditions: non-Ewing sarcoma cell line OVCAR-8, 72 hour
Protocol: as §1

[14] = system: HCT-116 non-Ewing sarcoma cell line; assay: 72 hour cytotoxicity, HCT-116; format: cell-based; conditions: non-Ewing sarcoma cell line HCT-116, 72 hour
Protocol: as §1

[15] = target: T1, EWS-FLI1 promoter occupancy upstream from Nr0b1, Tgfbr2, and Rcor1 genes in TC32 cells (Homo sapiens, UniProt Q01543+Q01844); assay: EWS-FLI1 promoter occupancy by ChIP-RTPCR; format: cell-based
T1 construct: containing the 5′ region of EWS (Ewing sarcoma breakpoint region 1) and the 3′ ETS region of Fli-1; N-terminal part of EWS (EWSR1, Q01844), natural fusion partner from the translocation; endogenous in cells; host or cells: TC32 Ewing sarcoma cells
Protocol: as §2, §3

[16] = system: ES-2 Ewing sarcoma cell line; assay: 72 hour cytotoxicity, ES-2; format: cell-based; conditions: Ewing sarcoma cell line ES-2, 72 hour
Protocol: as §1

Ewing cell lines = assay: In vitro efficacy, GI50 (72-hr) in Ewing cell lines; format: cell-based; conditions: Ewing cell lines (n=8)
[17] = system: 5838 Ewing sarcoma cell line; assay: 72 hour cytotoxicity, 5838; format: cell-based; conditions: Ewing sarcoma cell line 5838, 72 hour
Protocol: as §1

[18] = system: DU145 non-Ewing sarcoma cell line; assay: 72 hour cytotoxicity, DU145; format: cell-based; conditions: non-Ewing sarcoma cell line DU145, 72 hour
Protocol: as §1

[19] = system: Ewing sarcoma (TC32, 5838, SKES1) and non-Ewing (A459 (lung) and PC3 (prostate)) cancer cell lines; assay: Selectivity assay, Ewing sarcoma versus non-Ewing cell panel (72 hr cytotoxicity)
[20] = system: ES-8 Ewing sarcoma cell line; assay: 72 hour cytotoxicity, ES-8; format: cell-based; conditions: Ewing sarcoma cell line ES-8, 72 hour
Protocol: as §1

[21] = system: C42 non-Ewing sarcoma cell line; assay: 72 hour cytotoxicity, C42; format: cell-based; conditions: non-Ewing sarcoma cell line C42, 72 hour
Protocol: as §1

[22] = system: SK-ES-1 Ewing sarcoma cell line; assay: 72 hour cytotoxicity, SK-ES-1; format: cell-based; conditions: Ewing sarcoma cell line SK-ES-1, 72 hour
Protocol: as §1

TC32 cells = assay: Cell cycle distribution, FACS analysis; format: cell-based; conditions: 100 nM of drug for 24 hours
Protocol: FIG. 12(b) is a FACs analysis of TC32 cells treated with 100 nM of drug for 24 hours.
as §2, §3

[23] = system: A549, human non-small cell lung cancer cells; assay: 72 hour cytotoxicity, A549 (resazurin); format: cell-based; conditions: non-Ewing sarcoma cell line A549, 72 hour
Protocol: The cytotoxic effects of the side chain modifications of SA were investigated in order to determine whether the modification were beneficial to the drug structure. All cytotoxicity assays were performed with A549, human non-small cell lung cancer cells. A549 cells were cultured as specified from ATCC at 37° C., 5% CO2. The cells were added to a 96 well plate (5,000 cells/well) and permitted to attach for 24 h. After 24 h culture media were replaced with the side chain modified MTM SA derivative containing media at differing concentrations. The cells were incubated with the drug containing media for 72 hrs total (n=8). Cell viability was determined using a resazurin assay that signifies mitochondrial metabolic activity in living cells. […] of a 1 mM resazurin solution in PBS was added to the control and analogue-treated cells at the end of the treatment period. Cell viability was determined three hours later by reading the fluorescence at 560 nm (Ex)/590 nm (Em). The fluorescence signals were quantified using a Spectramax M5 plate reader (Molecular Devices) equipped with a SoftMaxPro software. Cytotoxicity was determined by calculating the half maximal inhibitory concentration (IC50) of each sample.
as §1

[24] = system: several cancer cell lines; conditions: cited from earlier work

T1 sequence (Q01844+Q01543 fused): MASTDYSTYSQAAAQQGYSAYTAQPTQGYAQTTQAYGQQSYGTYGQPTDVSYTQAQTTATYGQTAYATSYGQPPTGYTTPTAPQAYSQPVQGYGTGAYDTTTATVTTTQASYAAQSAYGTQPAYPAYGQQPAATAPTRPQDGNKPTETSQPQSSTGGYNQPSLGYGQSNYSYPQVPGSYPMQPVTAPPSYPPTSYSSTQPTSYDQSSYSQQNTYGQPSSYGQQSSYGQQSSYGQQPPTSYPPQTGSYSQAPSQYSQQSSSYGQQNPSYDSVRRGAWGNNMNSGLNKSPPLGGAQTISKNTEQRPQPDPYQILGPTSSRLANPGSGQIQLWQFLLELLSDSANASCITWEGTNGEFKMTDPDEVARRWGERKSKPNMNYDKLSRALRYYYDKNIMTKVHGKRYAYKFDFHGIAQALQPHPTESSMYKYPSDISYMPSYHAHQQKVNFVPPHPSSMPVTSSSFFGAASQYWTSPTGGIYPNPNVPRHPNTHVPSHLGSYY

Compound: COC(=O)C(Cc1cccc2[nH]ccc12)NC(=O)[C@@H](OC)[C@@H]1Cc2cc3cc(OC4CC(OC5CC(O)C(O)C(C)O5)C(O)C(C)O4)c(C)c(O)c3c(O)c2C(=O)[C@H]1OC1CC(OC2CC(OC3CC(C)(O)C(O)C(C)O3)C(O)C(C)O2)C(O)C(C)O1 (some centres unmarked) [MTMSA-Trp]
- IC50 [1]: 41 nM
- IC50 ([2]; TC-71): 34 nM
- IC50 [3]: 64 nM
- IC50 [4]: 33 nM
- IC50 ([5]; Homo sapiens): 20 nM
- IC50 [6]: 56 nM
- IC50 [7]: 48 nM
- IC50 ([8]; RD-ES): 39 nM
- IC50 [9]: 45 nM
- IC50 ([10]; Homo sapiens, TC-32): 18 nM
- rank-order of efficiency of mRNA down-regulation (qRT-PCR) [11]: MTM-SA-Trp>MTM=MTM-SK
- IC50 ([12]; Homo sapiens): 44 nM
- IC50 ([13]; Homo sapiens): 72 nM
- IC50 ([14]; Homo sapiens): 23 nM
- effect on FLI1 binding to promoters (ChIP-RTPCR) [15]: the most destabilizing
- IC50 [16]: 63 nM
- potency (GI50) among Ewing cell lines compared to other analogs (Ewing cell lines): relatively higher potency (lower GI50)
- IC50 [17]: 10 nM
- IC50 ([18]; Homo sapiens, DU-145): 31 nM
- selectivity against Ewing sarcoma cells relative to non-Ewing cells ([19]; FIG. 9, right panel): 9 fold
- more potent than MTM ([19]; against Ewing sarcoma cells, relative to MTM): about 3 fold
- higher selectivity than MTM against Ewing sarcoma relative to non-Ewing cell lines ([19]; relative to MTM, 72 hr): 3 fold
- IC50 [20]: 40 nM
- IC50 [21]: 96 nM
- IC50 ([22]; Homo sapiens, SK-ES1): 38 nM
- cell cycle distribution (TC32 cells): increased S-phase accumulation
- IC50 ([23]; Homo sapiens): 87 nM

Compound: CO[C@@H]([C@@H]1Cc2cc3cc(O[C@H]4C[C@@H](O[C@H]5C[C@@H](O)[C@H](O)[C@@H](C)O5)[C@H](O)[C@@H](C)O4)c(C)c(O)c3c(O)c2C(=O)[C@H]1O[C@H]1C[C@@H](O[C@H]2C[C@@H](O[C@H]3C[C@](C)(O)[C@H](O)[C@@H](C)O3)[C@@H](O)[C@@H](C)O2)[C@H](O)[C@@H](C)O1)[C@@H](O)C(C)=O [MTMSK, reference compound]
- IC50 [1]: 42 nM
- IC50 [2]: 31 nM
- IC50 [3]: 56 nM
- IC50 [4]: 32 nM
- activity compared to the parent MTM [24]: increased activity
- IC50 [5]: 36 nM
- IC50 [7]: 62 nM
- IC50 [8]: 40 nM
- IC50 [9]: 37 nM
- IC50 ([10]; read-out: IC50 (nM) TC 32): 23 nM
- rank-order of efficiency of mRNA down-regulation (qRT-PCR) [11]: MTM-SA-Trp>MTM=MTM-SK
- IC50 [12]: 37 nM
- IC50 [13]: 29 nM
- IC50 [14]: 31 nM
- effect on FLI1 binding to promoters (ChIP-RTPCR) [15]: mostly stabilize FLI1
- IC50 [16]: 39 nM
- IC50 [17]: 23 nM
- IC50 ([18]; read-out: IC50 (nM) DU 145): 32 nM
- IC50 [20]: 44 nM
- IC50 [21]: 89 nM
- IC50 [22]: 25 nM
- cell cycle distribution (TC32 cells): primarily in G1/G2 phase
- IC50 [23]: 30 nM
